System: Spodoptera littoralis
Experiment: Insecticidal activity against Spodoptera littoralis larvae assessed per gram of fresh weight of diet administered through artificial diet measured after 6 days
Format: functional, organism-based

SMILES: CCCCCCCCCCCC(=O)Oc1c(-c2c(C)cc(OC)c3c(OC)cccc23)ccc2c1[C@@H](C)N(C=O)[C@H](C)C2
- EC50: > 750 µg/g

SMILES: COc1cccc2c(-c3ccc4c(c3O)[C@@H](C)N(C(C)=O)[C@H](C)C4)c(C)cc(OC)c12 [N-ACETYLDIONCOPHYLLINE A]
- EC50: 291 µg/g

SMILES: COc1cccc2c(-c3ccc4c(c3OC(C)=O)[C@@H](C)N(C(C)=O)[C@H](C)C4)c(C)cc(OC)c12 [N-ACETYL-8-O-ACETYLDIONCOPHYLLINE A]
- EC50: 331 µg/g

SMILES: CCCCOc1c(-c2c(C)cc(OC)c3c(OC)cccc23)ccc2c1[C@@H](C)N(C=O)[C@H](C)C2 [8-O-N-BUTYL-N-FORMYLDIONCOPHYLLINE A]
- EC50: 182 µg/g

SMILES: COc1cccc2c(-c3ccc4c(c3OCc3ccc([N+](=O)[O-])cc3)[C@@H](C)N[C@H](C)C4)c(C)cc(OC)c12
- EC50: 25.6 µg/g

SMILES: COc1cccc2c(-c3ccc4c(c3OC(=O)C(C)(C)C)[C@@H](C)N(C=O)[C@H](C)C4)c(C)cc(OC)c12 [N-FORMYL-8-O-PIVALOYLDIONCOPHYLLINE A]
- EC50: 333 µg/g

SMILES: COc1cccc2c(-c3ccc4c(c3OCc3ccccc3)[C@@H](C)N(C=O)[C@H](C)C4)c(C)cc(OC)c12 [8-O-BENZYL-N-FORMYLDIONCOPHYLLINE A]
- EC50: 67.1 µg/g

SMILES: COc1cccc2c(-c3ccc4c(c3OCc3ccc(C(F)(F)F)cc3)[C@@H](C)N[C@H](C)C4)c(C)cc(OC)c12
- EC50: 35.1 µg/g

SMILES: COc1cccc2c(-c3ccc4c(c3OCc3ccccc3)[C@@H](C)N[C@H](C)C4)c(C)cc(OC)c12 [8-O-BENZYLDIONCOPHYLLINE A]
- EC50: 27.1 µg/g

SMILES: COc1cccc2c(-c3ccc4c(c3OC(=O)c3ccccc3)[C@@H](C)N(C=O)[C@H](C)C4)c(C)cc(OC)c12 [8-O-BENZOYL-N-FORMYLDIONCOPHYLLINE A]
- EC50: 132 µg/g

SMILES: COc1cccc2c(-c3ccc4c(c3OCc3ccc(Cl)cc3)[C@@H](C)N[C@H](C)C4)c(C)cc(OC)c12
- EC50: 16.4 µg/g

SMILES: COc1c(-c2c(C)cc(OC)c3c(OC)cccc23)ccc2c1[C@@H](C)N(C=O)[C@H](C)C2
- EC50: 171 µg/g

SMILES: COc1cccc2c(-c3ccc4c(c3OC(C)C)[C@@H](C)N[C@H](C)C4)c(C)cc(OC)c12 [8-O-ISOPROPYLDIONCOPHYLLINE A]
- EC50: 94.1 µg/g

SMILES: COc1cccc2c(-c3ccc4c(c3O)[C@@H](C)N[C@H](C)C4)c(C)cc(OC)c12 [DIONCOPHYLLINE A]
- EC50: 277 µg/g

SMILES: COc1cccc2c(-c3ccc4c(c3OCc3ccc(Br)cc3)[C@@H](C)N[C@H](C)C4)c(C)cc(OC)c12
- EC50: 15.6 µg/g

SMILES: COc1cccc2c(-c3ccc4c(c3O)[C@@H](C)N(C=O)[C@H](C)C4)c(C)cc(OC)c12 [N-FORMYLDIONCOPHYLLINE A]
- EC50: 454 µg/g

SMILES: COc1cccc2c(-c3ccc4c(c3OC(C)=O)[C@@H](C)N(C=O)[C@H](C)C4)c(C)cc(OC)c12 [8-O-ACETYL-N-FORMYLDIONCOPHYLLINE A]
- EC50: 361 µg/g

SMILES: COc1cccc2c(-c3ccc4c(c3OC(C)C)[C@@H](C)N(C=O)[C@H](C)C4)c(C)cc(OC)c12 [N-FORMYL-8-O-ISOPROPYLDIONCOPHYLLINE A]
- EC50: 130 µg/g

SMILES: COc1cccc2c(-c3ccc4c(c3O)[C@@H](C)N(C)[C@H](C)C4)c(C)cc(OC)c12
- EC50: 377 µg/g

SMILES: COc1cccc2c(-c3cc(Br)c4c(c3O)[C@@H](C)N[C@H](C)C4)c(C)cc(OC)c12 [5-BROMODIONCOPHYLLINE A]
- EC50: 193 µg/g

Source: ChEMBL document CHEMBL1146405, “Dioncophylline A as a growth-retarding agent against the herbivorous insect Spodoptera littoralis: structure-activity relationships” (J Nat Prod, 1997)
